Measured values published in patent publication US8987250B2 (Gilead Sciences, Inc., priority 2012, dated 2015).
pEC50: −log10 of the molar value.

Each compound was assayed on HIV-IIIb (assay: Test A: Antiviral Assay in MT4 Cells). Conditions: Human immunodeficiency virus 1, IIIB, MT4, 120 h, Table 1; MT-4 cells infected with HIV-IIIb, 5 days of incubation, CellTiter-Glo; read-out: EC50.
Type: cell-based
Method in brief: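 MT-4 cells pre-infected with HIV-IIIb (0.004 m.o.i.) at 37 °C, then exposed to 3-fold serial compound dilutions (10 concentrations, quadruplicate) in RPMI 1640/10% FBS. After 5 days at 37 °C, viability read by CellTiter-Glo luminescence.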

SMILES	pEC50
Cc1cc2nc(-c3ccc4c(cnn4C)c3)sc2c(-c2ccc(Cl)cc2)c1[C@H](OC(C)(C)C)C(=O)O [Compound 113b, (S)-2-tert-butoxy-2-(7-(4-chlorophenyl)-5-methyl-2-(1-methyl-1H-indazol-5-yl)benzo[d]thiazol-6-yl)acetic acid]	7.74
Cc1cc2nc(-c3cccc(-c4cnn(CC(C)C)c4)c3)sc2c(-c2ccc(Cl)cc2)c1[C@H](OC(C)(C)C)C(=O)O [Compound 147]	7.23
CCC(C)(C)O[C@H](C(=O)O)c1c(C)cc2nc(N3CCC3)sc2c1-c1ccc2c3c(ccnc13)CCO2 (atropisomer, axis not shown) [Compound 89, (S)-2-((S)-2-(azetidin-1-yl)-7-(2,3-dihydropyrano[4,3,2-de]quinolin-7-yl)-5-methylbenzo[d]thiazol-6-yl)-2-(tert-pentyloxy)acetic acid]	7.44
Cc1cc2nc(N3CC(S(C)(=O)=O)C3)sc2c(-c2ccc3c4c(ccnc24)CCO3)c1[C@H](OC(C)(C)C)C(=O)O (atropisomer, axis not shown) [Compound 58, (S)-2-tert-butoxy-2-((S)-7-(2,3-dihydropyrano[4,3,2-de]quinolin-7-yl)-5-methyl-2-(3-(methylsulfonyl)azetidin-1-yl)benzo[d]thiazol-6-yl)acetic acid]	5.45

Same assay, conditions: Human immunodeficiency virus 1, IIIB, MT4, 120 h, Table 2; MT-4 cells infected with HIV-IIIb, 5 days of incubation, CellTiter-Glo; read-out: EC50

SMILES	pEC50
Cc1cc2nc(-c3ccc4nc(C)n([C@@H]5CCN(C(C)C)C5)c4c3)sc2c(-c2ccc(Cl)cc2)c1[C@H](OC(C)(C)C)C(=O)O [Compound 300, (S)-2-tert-butoxy-2-(7-(4-chlorophenyl)-2-(1-((R)-1-isopropylpyrrolidin-3-yl)-2-methyl-1H-benzo[d]imidazol-6-yl)-5-methylbenzo[d]thiazol-6-yl)acetic acid]	7.92
Cc1cc2nc(-c3ccc4nn(Cc5ccccc5)c(C)c4c3)sc2c(-c2ccc(Cl)cc2)c1[C@H](OC(C)(C)C)C(=O)O [Compound 315, (S)-2-(2-(2-benzyl-3-methyl-2H-indazol-5-yl)-7-(4-chlorophenyl)-5-methylbenzo[d]thiazol-6-yl)-2-tert-butoxyacetic acid]	7.47
Cc1cc2nc(-c3cnc4c(c3)nc(C)n4C)sc2c(-c2ccc(Cl)cc2)c1[C@H](OC(C)(C)C)C(=O)O [Compound 302, (S)-2-tert-butoxy-2-(7-(4-chlorophenyl)-2-(2,3-dimethyl-3H-imidazo[4,5-b]pyridin-6-yl)-5-methylbenzo[d]thiazol-6-yl)acetic acid]	8.10
Cc1cc2nc(-c3ccnc(N4CCN(C)CC4)c3)sc2c(-c2ccc(Cl)cc2)c1[C@H](OC(C)(C)C)C(=O)O [Compound 219, (S)-2-tert-butoxy-2-(7-(4-chlorophenyl)-5-methyl-2-(2-(4-methylpiperazin-1-yl)pyridin-4-yl)benzo[d]thiazol-6-yl)acetic acid]	7.41
Cc1cc2nc(-c3ccc4scnc4c3)sc2c(-c2ccc(Cl)cc2)c1[C@H](OC(C)(C)C)C(=O)O [Compound 429]	7.37
Cc1cc2nc(-c3ccnc(-c4ccc5nc(N)ccc5c4)c3)sc2c(-c2ccc(Cl)cc2)c1[C@H](OC(C)(C)C)C(=O)O [Compound 193, (S)-2-(2-(2-(2-aminoquinolin-6-yl)pyridin-4-yl)-7-(4-chlorophenyl)-5-methylbenzo[d]thiazol-6-yl)-2-tert-butoxyacetic acid]	8.05
Cc1cc2nc(-c3ccc4c(c3)CC(=O)N4C)sc2c(-c2ccc(Cl)cc2)c1[C@H](OC(C)(C)C)C(=O)O [Compound 239, (S)-2-tert-butoxy-2-(7-(4-chlorophenyl)-5-methyl-2-(1-methyl-2-oxoindolin-5-yl)benzo[d]thiazol-6-yl)acetic acid]	7.59
Cc1cc2nc(-c3ccc4c(c3)[nH]c(=O)n4C)sc2c(-c2ccc(Cl)cc2)c1[C@H](OC(C)(C)C)C(=O)O [Compound 303, (S)-2-tert-butoxy-2-(7-(4-chlorophenyl)-5-methyl-2-(1-methyl-2-oxo-2,3-dihydro-1H-benzo[d]imidazol-5-yl)benzo[d]thiazol-6-yl)acetic acid]	7.72
Cc1cc2nc(-c3ccnc(N4CCOCC4)n3)sc2c(-c2ccc(Cl)cc2)c1[C@H](OC(C)(C)C)C(=O)O [Compound 343]	7.59
Cc1cc2nc(-c3ccnc(C4CCN(C)CC4)n3)sc2c(-c2ccc(Cl)cc2)c1[C@H](OC(C)(C)C)C(=O)O [Compound 205, (S)-2-tert-butoxy-2-(7-(4-chlorophenyl)-5-methyl-2-(2-(1-methylpiperidin-4-yl)pyrimidin-4-yl)benzo[d]thiazol-6-yl)acetic acid]	7.74
Cc1cc2nc(-c3ccnc(N4CCN(C(C)C)CC4)c3)sc2c(-c2ccc(Cl)cc2)c1[C@H](OC(C)(C)C)C(=O)O [Compound 221, (S)-2-tert-butoxy-2-(7-(4-chlorophenyl)-2-(2-(4-isopropylpiperazin-1-yl)pyridin-4-yl)-5-methylbenzo[d]thiazol-6-yl)acetic acid]	7.62
Cc1cc2nc(-c3cccn(-c4ccc5c(cnn5C)c4)c3=O)sc2c(-c2ccc(Cl)cc2)c1[C@H](OC(C)(C)C)C(=O)O [Compound 182, (S)-2-tert-butoxy-2-(7-(4-chlorophenyl)-5-methyl-2-(1-(1-methyl-1H-indazol-5-yl)-2-oxo-1,2-dihydropyridin-3-yl)benzo[d]thiazol-6-yl)acetic acid]	7.10
Cc1cc2nc(-c3ccnc(N4CCN(C)CC4)n3)sc2c(-c2ccc(Cl)cc2)c1[C@H](OC(C)(C)C)C(=O)O [Compound 344]	8.22
Cc1cc2nc(-c3ccc4c(cnn4C)n3)sc2c(-c2ccc(Cl)cc2)c1[C@H](OC(C)(C)C)C(=O)O [Compound 367]	8.22
Cc1cc2nc(-c3ccnc(-c4ccc5c(cnn5C5CC5)c4)c3)sc2c(-c2ccc(Cl)cc2)c1[C@H](OC(C)(C)C)C(=O)O [Compound 175, (S)-2-tert-butoxy-2-(7-(4-chlorophenyl)-2-(2-(1-cyclopropyl-1H-indazol-5-yl)pyridin-4-yl)-5-methylbenzo[d]thiazol-6-yl)acetic acid]	7.48
Cc1cc2nc(-c3ccc4nc(C)n(C)c4c3)sc2c(-c2ccc(Cl)cc2)c1[C@H](OC(C)(C)C)C(=O)O [Compound 292, (S)-2-(tert-butoxy)-2-(7-(4-chlorophenyl)-2-(1,2-dimethyl-1H-benzo[d]imidazol-6-yl)-5-methylbenzo[d]thiazol-6-yl)acetic acid]	7.64
Cc1cc2nc(-c3ccc4c(c3)nc(C)n4C)sc2c(-c2ccc(Cl)cc2)c1[C@H](OC(C)(C)C)C(=O)O [Compound 217, (S)-2-tert-butoxy-2-(7-(4-chlorophenyl)-2-(1,2-dimethyl-1H-benzo[d]imidazol-5-yl)-5-methylbenzo[d]thiazol-6-yl)acetic acid]	8.15
Cc1cc2nc(-c3cc4c(C)nn(C)c4cn3)sc2c(-c2ccc(Cl)cc2)c1[C@H](OC(C)(C)C)C(=O)O [Compound 235, (S)-2-tert-butoxy-2-(7-(4-chlorophenyl)-2-(1,3-dimethyl-1H-pyrazolo[3,4-c]pyridin-5-yl)-5-methylbenzo[d]thiazol-6-yl)acetic acid]	7.85
Cc1cc2nc(-c3ccc4c(c3)ncn4C)sc2c(-c2ccc(Cl)cc2)c1[C@H](OC(C)(C)C)C(=O)O [Compound 415]	8.00
Cc1cc2nc(-c3ccc4[nH]ncc4c3)sc2c(-c2ccc(Cl)cc2)c1[C@H](OC(C)(C)C)C(=O)O [Compound 349]	7.38
CCOc1ncc(-c2cc(-c3nc4cc(C)c([C@H](OC(C)(C)C)C(=O)O)c(-c5ccc(Cl)cc5)c4s3)ccn2)cn1 [Compound 403]	7.38
Cc1cc2nc(-c3ccnc(N4CCN(C(C)C)C[C@H]4C)n3)sc2c(-c2ccc(Cl)cc2)c1[C@H](OC(C)(C)C)C(=O)O [Compound 466, (S)-2-tert-butoxy-2-(7-(4-chlorophenyl)-2-(2-((R)-4-isopropyl-2-methylpiperazin-1-yl)pyrimidin-4-yl)-5-methylbenzo[d]thiazol-6-yl)acetic acid]	8.30
Cc1cnc(-c2ccc3c(cnn3C)c2)cc1-c1nc2cc(C)c([C@H](OC(C)(C)C)C(=O)O)c(-c3ccc(Cl)cc3)c2s1 [Compound 289, (S)-2-(tert-butoxy)-2-(7-(4-chlorophenyl)-5-methyl-2-(5-methyl-2-(1-methyl-1H-indazol-5-yl)pyridin-4-yl)benzo[d]thiazol-6-yl)acetic acid]	7.60
Cc1cc2nc(-c3ccc4c(C)nn(C)c4c3)sc2c(-c2ccc(Cl)cc2)c1[C@H](OC(C)(C)C)C(=O)O [Compound 209, (S)-2-tert-butoxy-2-(7-(4-chlorophenyl)-2-(1,3-dimethyl-1H-indazol-6-yl)-5-methylbenzo[d]thiazol-6-yl)acetic acid]	7.80
Cc1cc2nc(-c3ccc4c(c3)C(C)(C)C(=O)N4C)sc2c(-c2ccc(Cl)cc2)c1[C@H](OC(C)(C)C)C(=O)O [Compound 256, (S)-2-tert-butoxy-2-(7-(4-chlorophenyl)-5-methyl-2-(1,3,3-trimethyl-2-oxoindolin-5-yl)benzo[d]thiazol-6-yl)acetic acid]	8.05
Cc1cc2nc(N3CC[C@H]4CCCC[C@@H]4C3)sc2c(-c2ccc(Cl)cc2)c1[C@H](OC(C)(C)C)C(=O)O [Compound 438]	6.59
Cc1cc2nc(-c3cncc(N4CCN(C5COC5)CC4)c3)sc2c(-c2ccc(Cl)cc2)c1[C@H](OC(C)(C)C)C(=O)O [Compound 482, (S)-2-tert-butoxy-2-(7-(4-chlorophenyl)-5-methyl-2-(5-(4-(oxetan-3-yl)piperazin-1-yl)pyridin-3-yl)benzo[d]thiazol-6-yl)acetic acid]	7.85
Cc1cc2nc(-c3ccnc(-c4cc5cn(C)nc5cn4)c3)sc2c(-c2ccc(Cl)cc2)c1[C@H](OC(C)(C)C)C(=O)O [Compound 368]	8.30
Cc1cc2nc(-c3ccnc(-c4ccc5c(c4)c(C)nn5C)c3)sc2c(-c2ccc(Cl)cc2)c1[C@H](OC(C)(C)C)C(=O)O [Compound 443]	7.62
